Data: patent US20140094521A1, “BENZYLAMINE DERIVATIVE” (priority 2011, published 2014)

How the values were obtained:
Assay type in all cases: cell-based
[1] = test system: Human multiple myeloma cell line RPMI8226; assay: Anticancer activity against multiple myeloma cell (Cell Counting Kit-8, 3 days); conditions: RPMI-8226, 72 h, read-out: IC50 value against a multiple myeloma cell
Experimental: Human multiple myeloma cell line RPMI8226 was seeded on a 96 well plate in a density of 1×10^4 cells/well, and incubated under 5% carbon dioxide atmosphere at 37° C. overnight. Separately, the compound obtained in Example 2 was dissolved in dimethylsulfoxide, and added to each well so that the final concentration of the compound became 0.5 μM, 1 μM, 2 μM, 3 μM, 12.5 μM, 25 μM or 50 μM.
In addition, melphalan, which is a multiple myeloma therapeutic agent, was added to each well so that the final concentration of the compound became 10 μM, 20 μM, 30 μM, 40 μM or 50 μM as positive controls for comparison. Further, an experimental case in which only dimethylsulfoxide was added in the final concentration of 0.5 v/v % without adding the compound was provided.
Then, after the cell was cultured under 5% carbon dioxide atmosphere at 37° C. for 3 days, an absorbance of formazan, which is an orange pigment produced by a living cell, at the wavelength of 420 nm was measured using a reagent for measuring cell proliferation/cytotoxicity (manufactured by Dojin Chemical Co., Cell Counting Kit-8). […] In addition, IC50 values were calculated from the obtained results.

[2] = test system: SP cell of human multiple myeloma cell line RPMI8226; assay: Anticancer activity against SP cell (Hoechst33342 flow cytometry); conditions: 5 μM
Experimental: A stem cell can undergo differentiation into various tissues and cells such as a hematopoietic stem cell, and has the quality to exclude fluorescent chemical substance such as Hoechst33258 extracellularly. […] A cell having such properties is called as an SP cell, i.e. Side Population Cell. […] Therefore, an effect of the present invention compound against a cancerous SP cell was examined.
Specifically, human multiple myeloma cell line RPMI8226 was incubated in the presence of the present invention compound similarly to Example 4. The cell was dispersed in 3% FBS DMEH so that the concentration became 1×10^6 cells/mL. A temperature of the dispersion was increased to 37° C., and then Hoechst33342 was added thereto so that the concentration thereof became 5 μg/ml. The mixture was incubated at 37° C. for 60 minutes under a shaded state with stirring every 20 minutes. Then, the mixture was centrifuged at 800×g for 3 minutes, and the supernatant was removed. Further, a washing procedure in which cooled 2% FES PBS was added, the mixture was centrifuged and the supernatant was removed was repeated two times. Separately, propidium iodide was dissolved in PBS to obtain a 200 μg/mL solution. […] The emitted fluorescence was passed through a bandpass filters of 450 nm and 675 nm, and deployed to obtain a two-dimensional dot plot. […]

[3] = test system: Human acute myelogenous leukemia cell line KG1; assay: Survival rate of blood cancer cells (WST-8, 72 hours); conditions: read-out: EC50, Acute myelogenous leukemia cell
Experimental: (§1) Human acute myelogenous leukemia cell line KG1 and human promyelocytic leukemia cell line HL60 in addition to human multiple myeloma cell line RPMI8226 were seeded in a highly nutrient medium containing 10% FES (RPMI1640, 100 μL) in a density of 1×10^3 cells/well. The cells were incubated under 5% carbon dioxide atmosphere at 37° C. overnight. Separately, the compound of Example 2 was dissolved in DMSO and the obtained solution was diluted with the same culture medium. The mixture was added to each well so that the final concentrations of the compound became 0.39 μM, 0.78 μM, 1.56 μM, 3.13 μM, 6.25 μM, 12.5 μM or 50 μM.
(§2) In addition, melphalan, which is a multiple myeloma therapeutic agent, was added to each well at the same final concentrations as positive controls for comparison. Further, an experimental case in which only dimethylsulfoxide was added in the final concentration of 0.2 to 0.8 v/v % without adding the compound was provided.
(§3) Then, after the cells were cultured under 5% carbon dioxide atmosphere at 37° C. for 72 hours, the culture medium was removed and a culture medium obtained by mixing 100 μL of the above culture medium and 10 μL of WST-8, which is a reagent for measuring a cell number, was added to each well. After the cells were cultured under 5% carbon dioxide atmosphere at 37° C. for 2 hours, an absorbance at 450 nm was measured. The absorbance value when the cells were treated with DMSO only was set to be 100%, and a ratio of absorbance values at each concentration of the present invention compound or melphalan relative to the value were calculated as survival rate of each blood cancer cell. In addition, EC50, i.e. 50% effective concentration value, of each compound against each blood cancer cell was calculated from the obtained results.

[4] = test system: Human multiple myeloma cell line RPMI8226; assay: as above; conditions: RPMI-8226, 72 h, read-out: EC50, Multiple myeloma cell
Experimental: as §1, §2, §3

[5] = test system: human promyelocytic leukemia cell line HL60; assay: as above; conditions: HL-60, 72 h, read-out: EC50, Promyelocytic leukemia cell
Experimental: as §1, §2, §3

In the case of `N[C@@H](Cc1ccc(N(CCCl)CCCl)cc1)C(=O)O` [Melphalan, melphalan], the IC50 [1] is reported as 21 µM, the “ratio of stained cells in SP region relative to the total cells” value ([2]; control (0.5% DMSO only) 0.680 ± 0.0173%) is reported as 0.563 ± 0.0777% and the “ratio of stained cells in Non-SP region relative to the total cells” value ([2]; control (0.5% DMSO only) 19.2 ± 0.295%) is reported as 5.05 ± 0.414%. For the same molecule, the EC50 [3] was 3.69 µM, the EC50 [4] was 9.82 µM and the EC50 [5] was 0.734 µM.
